“Also recorded” adds a separate entry of the source.
Tests used:
[1] = system: HHSEC; assay: Colorimetric (XTT) cell viability assay in HHSEC; format: cell-based, human; settings: for toxicity to HHSEC (ranking): XTT viability, FIG. 33B
Protocol: Cell viability assay was performed with a XTT Viability Kit (Cell Signaling Technology, 9095) according to the manufacturer's instructions. HHSEC were seeded in three black-walled 96-well plates (Corning, 3603) with cell density≥12,000 cells per well.
The cells were incubated for 24 hours at 37° C., 5% CO2 in endothelial growth media (Cell Application Inc, 211-500). After 24 hours, old media was removed and 100 μL of fresh media was added to each well. Drugs were dissolved in DMSO; a 1.1 mM stock solution was made by diluting drug in DPBS (11% DMSO, v/v). The 1.1 mM stock was serially diluted with 3-fold dilutions. DMSO volumes were balanced to 11% DMSO (v/v). A multichannel pipette was used to add 10 μL of drug or control stocks simultaneously (i.e., one column per drug per plate). The final maximum concentration of drug was 100 μM. Plates were incubated for 21 hours at 37° C., 5% CO2. After incubation, 50 μL of XTT solution were added to each well and incubated for three hours to maximize differences in signal. Absorbance was measured at 462 and 620 nm with a spectrophotometer (Molecular Devices, Spectramax Plus 384). Background absorbance at 620 nm was subtracted from maximum peak at 462 nm.

[2] = system: CXCL1 and CCL2 mRNA expression; assay: Murine LPS model of mild liver inflammation, qPCR of CXCL1 and CCL2 mRNA; format: in vivo; settings: mice, drug given one hour before LPS; for CCL2 mRNA expression versus LPS control: several doses
Protocol: BRD4 inhibitors were introduced to murine models of mild liver inflammation induced by LPS. The BRD4 inhibitors acted as prophylactic agents to prevent the increased expression of CXCL1 and CCL2. […] RNA extraction was performed with RNeasy kit (Qiagen 74104) from cells and mouse tissue according to the manufacturer's instructions. RNA Quantification was performed with spectrophotometry (NanoDrop, Thermo Scientific). 500 ng of mRNA was used for cDNA synthesis with dNTP and oligo primer using SuperScript™ III (Invitrogen 18080-093) for reverse transcription per the manufacturer's protocol. Real-Time PCR was performed from cDNA using IQ SYBR Green Mix (Biorad 1725121) on the 7500 Real-Time PCR system (Applied Biosystems), according to the manufacturer's instructions. Amplification of GAPDH and B-actin was performed for respective samples as internal controls. Each experiment was done in duplicates.

[3] = molecular target: BRD4 BD1 (Homo sapiens, UniProt O60885); assay: BRD4 BD1 affinity (IC50); format: binding; settings: ratio of BD2 and BD1 IC50
[4] = system: CXCL chemokine expression in LSECs; assay: CXCL chemokine expression by qPCR in LSECs with or without TNFα stimulation; format: cell-based, human; settings: LSECs pretreated with inhibitor
Protocol: LSECs were thawed and cultured according to standard cell culture conditions and according to manufacture instruction (ScienCell). Briefly, LSECs are plated at low confluency and cultured in Endothelial cell medium (Cell 211-500). Fresh medium changed every other day and cells are split when close to confluency. For TNFα stimulation experiments, low passage cells were plated at 70% confluency and cultured overnight. Serum starvation was performed by changing cells to low-serum medium (0.5% FBS in basal endothelial medium (Lonza CC-3121)) for 2 hours. Human TNFα at concentration 10 ng/mL was added to low-serum medium and incubated with cells for 90 minutes before cells were collected and assayed for downstream analysis. […] Inhibitors were added at concentrations indicated to low-serum medium, and cells were incubated in inhibitor containing medium for 2 hours. After inhibitor treatment, medium change was performed with TNFα (Peprotech 300-01A) at 10 ng/ml or control low-serum medium for 90 minutes incubation. LSECs were then collected for analysis.
mRNA levels were quantified by real-time reverse transcription PCR. RNA extraction was performed with RNeasy kit (Qiagen 74104) from cells and mouse tissue according to the manufacturer's instructions. RNA Quantification was performed with spectrophotometry (NanoDrop, Thermo Scientific). […]

[5] = system: alcohol/LPS-induced liver inflammation; assay: Multiple alcohol binge with LPS mouse model; format: in vivo, mice; settings: UMN627 22 mg/kg IP
Protocol: mRNA levels were quantified by real-time reverse transcription PCR. RNA extraction was performed with RNeasy kit (Qiagen 74104) from cells and mouse tissue according to the manufacturer's instructions. RNA Quantification was performed with spectrophotometry (NanoDrop, Thermo Scientific). 500 ng of mRNA was used for cDNA synthesis with dNTP and oligo primer using SuperScript™ III (Invitrogen 18080-093) for reverse transcription per the manufacturer's protocol. Real-Time PCR was performed from cDNA using IQ SYBR Green Mix (Biorad 1725121) on the 7500 Real-Time PCR system (Applied Biosystems), according to the manufacturer's instructions. Amplification of GAPDH and B-actin was performed for respective samples as internal controls. Each experiment was done in duplicates.
Right lobes of all mouse livers were fixed in 10% formalin and embedded in paraffin and cut into 5 μm sections. Slides were deparaffinized and underwent antigen retrieval (IHC-Tek IW-1000). Slides were treated with hydrogen peroxide for 10 minutes before blocking in 5% bovine serum albumin in phosphate-buffered saline (PBS) for 1 hour at room temperature. Samples were then incubated overnight at 4° C. with rabbit anti-MPO antibody (Abcam ab9535) at 1:25. Slides were then blocked with Avidin and Biotin (Vector SP-2001) for 15 minutes each before treatment with biotinylated secondary antibody horse anti-Rabbit (Vector BA-1100) at 1:200 for 1 hour at room temperature. Slides were then treated with
ABC reagent (Vector PK-7100) for 30 minutes before treatment with DAB reagent (Vector SK-4100) for 5 minutes. Counterstain was performed with hematoxylin stain and dehydrated in ethanol and xylene. Images were acquired using a Zeiss LSM 780 confocal microscope at 10× magnification, 5 images per slide (Carl Zeiss MicroImaging, Jena, Germany).
Liver sections from the left lobe of all mouse livers were embedded in OCT (Sakura 4583) and flash frozen. Frozen tissue was sectioned into 10 μm slices, fixed in 10% formalin and stained with BODIPY 493/503 (Invitrogen D3922) or Oil-red (Sigma 00625) and counterstained with 4′,6-diamidino-2-phenylindole (DAPI) (Sigma D9542) or hematoxylin, respectively. Representative images were obtained with microscopy in one session under same settings (Carl Zeiss MicroImaging, Jena, Germany), 3 images per slide. The proportion of tissue stained with BODIPY, or Oil-red content was quantified with ImageJ macro commands for standardization. For BODIPY staining, FITC channel intensity was measured across the whole image, and average intensities of images were normalized to the average of all control samples. For Oil Red staining, red staining was quantified above a pre-selected threshold, and average intensities of images were normalized to the average of all control samples. […]

[6] = among treatment groups, 22 mg/kg

**Q.** `CCc1cc(C)cc(Oc2nccc(-c3c(-c4ccc(C(F)(F)F)cc4)ncn3C3CCN(CCN(C)C)CC3)n2)c1` [9-73] was tested. Which “toxicity to HHSEC (ranking)” value [1] did it give?
**A.** The value was “least toxic”.

**Q.** With `Cc1cc(C)cc(Nc2nccc(-c3c(-c4ccc(C(F)(F)F)cc4)ncn3C3CCN(CCCN(C)CCNC(=O)CN4CCC(n5nnc(C)c5-c5cccc(Oc6cc(C)cc(C)c6)n5)CC4)CC3)n2)c1` [9-169] as the compound, how does the EC50 ([1]; Homo sapiens, read-out: EC50, concentration that causes 50% toxicity to HHSEC, XTT, 21 + 3 hours incubation) read?
**A.** Its EC50 is less than 4 µM.

**Q.** Which “toxicity to HHSEC (ranking)” value [1] does the source give for `CCc1cc(C)cc(Oc2nccc(-c3c(-c4ccc(C(F)(F)F)cc4)ncn3[C@H]3CCN(CCN(C)C)C3)n2)c1` [9-209] here?
**A.** Its value is “least toxic”.

**Q.** How did the “toxicity to HHSEC (ranking)” value [1] turn out when `Cc1cc(C)cc(Oc2cccc(-c3c(C)nnn3C3CCNCC3)n2)c1` [AC4118] was run?
**A.** The value was “least toxic”.

**Q.** What about the “IC50 for chemokine expression (chemokine not specified)” value [2] of the same compound?
**A.** The value was less than 5 mg/kg.

**Q.** What about the “CCL2 mRNA expression versus LPS control” value [2] of the same compound?
**A.** The value was “significantly reduced CCL2 expression at higher concentrations compared to UMN627”.

**Q.** For `Cc1nnn(C2CCN(CCN(C)C)CC2)c1-c1cccc(Oc2cc(Br)ccc2Br)n1` [AC6026], which “toxicity to HHSEC (ranking)” value [1] is on record?
**A.** Its value is “least toxic”.

**Q.** For `Cc1cc(C)cc(Oc2cccc(-c3c(C)nnn3C3CCN(CCN(C)C)CC3)n2)c1` [AC6027], which “toxicity to HHSEC (ranking)” value [1] is on record?
**A.** The value was “least toxic”.

**Q.** Which “affinity for BRD4 BD1 over BRD4 BD2” value [3] does the source give for `Cc1cc(C)cc(Nc2nccc(-c3c(-c4ccc(C(F)(F)F)cc4)ncn3C3CCN(CCN)CC3)n2)c1` [UMN627] here?
**A.** The value was “over 20 fold”.

**Q.** What about the “CXCL chemokine expression in LSECs” value [4] of the same compound?
**A.** The value was “showed efficacy in CXCL suppression”.

**Q.** What about the “liver neutrophil infiltration (MPO IHC)” value ([5]; alcohol binges/LPS mice) of the same compound?
**A.** Its value is “Attenuated”.

**Q.** What about the “liver CXCL chemokine (and Ly6g) expression by qPCR” value ([5]; alcohol binges/LPS mice, 22 mg/kg) of the same compound?
**A.** Its value is “attenuated”.

**Q.** And the “serum ALT levels” value [5, 6]?
**A.** The value was “no significant changes; also recorded: did not show statistical difference”.

**Q.** And the “steatosis (BODIPY 493/503 staining)” value [5, 6]?
**A.** The value was “no significant changes; also recorded: not significantly correlated”.

**Q.** What about the “IC50 for CCL2 mRNA expression” value [2] of the same compound?
**A.** The value was 8.8 mg/kg.

**Q.** And the “IC50 for CXCL1 mRNA expression” value [2]?
**A.** The value was 10.9 mg/kg.

**Q.** And the “CCL2 mRNA expression versus LPS control” value [2]?
**A.** The value was “No significant differences were found”.

Source: patent US20250114355A1, “TREATING LIVER DISEASE” (Mayo Foundation for Medical Education and Research, priority 2021, published 2025)
